The source of these data is paper PMC4737580 (Bioorganic & medicinal chemistry letters, 2010).

The target in one data set is furin (Homo sapiens, UniProt P09958). Description: Furin inhibition, Ki from Dixon plots. The format is biochemical.
For data set [1] the following is noted: general statement, no reference given; cited from earlier work.

Sequence of furin (P09958 108-794): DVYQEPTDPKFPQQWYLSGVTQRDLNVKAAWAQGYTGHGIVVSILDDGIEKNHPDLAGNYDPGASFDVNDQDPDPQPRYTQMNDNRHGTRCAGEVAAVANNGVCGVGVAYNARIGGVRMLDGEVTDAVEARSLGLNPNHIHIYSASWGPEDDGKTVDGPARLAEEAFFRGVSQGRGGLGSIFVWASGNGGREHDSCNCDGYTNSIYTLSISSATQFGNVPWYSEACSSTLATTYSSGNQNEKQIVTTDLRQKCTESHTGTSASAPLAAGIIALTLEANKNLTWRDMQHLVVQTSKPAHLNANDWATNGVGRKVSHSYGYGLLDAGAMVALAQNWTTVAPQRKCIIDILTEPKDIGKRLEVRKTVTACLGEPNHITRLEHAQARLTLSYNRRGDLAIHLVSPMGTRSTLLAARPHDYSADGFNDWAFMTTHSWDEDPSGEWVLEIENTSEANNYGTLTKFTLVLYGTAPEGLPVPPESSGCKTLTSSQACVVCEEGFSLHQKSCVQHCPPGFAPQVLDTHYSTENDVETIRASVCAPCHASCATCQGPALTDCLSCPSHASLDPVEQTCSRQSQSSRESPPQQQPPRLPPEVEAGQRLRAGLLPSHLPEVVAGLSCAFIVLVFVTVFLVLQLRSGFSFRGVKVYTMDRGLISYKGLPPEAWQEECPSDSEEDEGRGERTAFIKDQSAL

By Ki is commonly meant a dissociation constant, usually derived from enzyme kinetics or from competition with a known ligand. Read a low Ki as tighter binding. At furin (Ki, Ki values from Dixon plots), `N=C(N)N/N=C/c1ccccc1OCc1ccc(Cl)cc1` [Compound 2] registered a Ki of 25 µM. Turning to `C/C(=N\NC(=N)N)c1cc(NC(=O)CCCNC(=N)N)cc(/C(C)=N/NC(=N)N)c1` [Compound 17], the “fold improved Ki compared to 1” value at furin (relative to compound 1) is reported as “approximately 4 fold”. With `N=C(N)N` [guanidine], the pKa result in data set [1] is given as “approximately 13”.
